Test results: patent US10307383B2, “Cosmetic composition for preventing or ameliorating hypersensitive skin comprising cedrol or derivatives thereof, or pharmaceutically acceptable salts thereof” (University of Seoul Industry Cooperation Foundation, priority 2017, dated 2019)

Tests used:
Type in all cases: in vivo, Balb/c mouse
[1] = tested on: psoriasis induced mice (imiquimod); assay: Keratosis reduction effect in the psoriasis induced mice (PASI); conditions: for keratosis mean point (PASI): day 7, 100 mg/kg oral once a day, IMQ applied, IMQ alone 3.8
Protocol: (§1) To investigate the delayed effect of cedrol, cedryl acetate, and alpha-cedrene on the development of psoriasis, total 5 groups of mice were prepared (8 mice/group). First, the hair of the entire back of the 8-week-old male Balb/c mouse whose immune system was weakened was removed by using a hair clipper (Kimlaube Hair pen 325,327, Rikei, Korea). In the middle of the shaved back of the mouse, 2 mg of imiquimod (3M Health Care Limited, England) was applied in the area of 2 cm×1.5 cm and also 1,125 mg of imiquimod was applied on the right ear of the mouse every day once a day to induce psoriasis.
(§2) The mice prepared above were divided into the distilled water treated group (IMQ), the cedrol treated group (C), the cedryl acetate treated group (CA), and the alpha-cedrene treated group (CE). At this time, the mice were orally treated with distilled water at the concentration of 200 μl/mouse and cedrol or its derivatives at the concentration of 200 μl/mouse (100 mg/kg). The day when distilled water or the compound administration started was recorded as day 0 and the administration was performed once a day for a week, during which photo-recording was performed every day (FIGS. 2A˜2D). In the meantime, instead of applying imiquimod, 40 mg of vaseline was applied on the back of the control group (CONT) and 22.5 mg of vaseline was applied on the right ear of the control group. And the control group was orally administered with distilled water (200 μl/mouse).
Then, the psoriasis area severity index (PASI) was calculated to confirm the reduction effect of the compounds on keratosis. Keratosis is a symptom of psoriasis. The application of IMQ can induce keratosis.

[2] = Weight changes in the psoriasis induced mice (oral administration during imiquimod application); conditions: 100 mg/kg oral once a day during application of IMQ; increase
Protocol: as §1
The mice prepared above were divided into the distilled water treated group (IMQ), the cedrol treated group (C), the cedryl acetate treated group (CA), and the alpha-cedrene treated group (CE). […] The day when distilled water or the compound administration started was recorded as day 0 and the administration was performed once a day for a week, during which photo-recording was performed every day (FIGS. 2A˜2D). […]
To compare the weight changes in the psoriasis induced mice according to the oral administration of cedrol, cedryl acetate, and alpha-cedrene of Example <2-1>, the weight of each mouse was measured at the same time every day for a week.

[3] = tested on: psoriasis induced mice (imiquimod); assay: Recovery effect on skin flair of the psoriasis induced mice after termination of imiquimod (PASI); conditions: for PASI reflecting skin flair: day 8 (imiquimod application stopped), 100 mg/kg oral; for skin flair disappearance (in words): on day 16, 100 mg/kg oral after termination of imiquimod
Protocol: (§3) Imiquimod was applied to the psoriasis induced mice which had developed psoriasis for a week in Example <2-1>. The application was stopped 8 days after the application began. The groups CON and IMQ were treated with distilled water, the group C was treated with cedrol, the group CA was treated with cedryl acetate, the group CE was treated with alpha-cedrene alone at the concentration of 100 mg/kg in 200 μl, every day via oral-administration. Day 8 was the day the imiquimod application was stopped, since then the compounds were administered for 1 week once a day, during which photo-recording was performed (FIGS. 13A˜13D).
Then, the psoriasis area severity index (Psoriasis Area Severity Index, PASI) was calculated, based on which the recovery effect on keratosis was evaluated.

[4] = tested on: psoriasis induced mice (imiquimod); assay: Cumulative score of PASI for ear thickness, keratosis and skin flair (recovery phase); conditions: 100 mg/kg oral after termination of imiquimod
Protocol: as §3
The psoriasis area severity index obtained in Examples <3-2> and <3-4> was accumulated to compare the psoriasis area severity index for ear thickness, keratosis and skin flair of the mouse groups respectively treated with cedrol, cedryl acetate, and alpha-cedrene via oral-administration.

[5] = tested on: psoriasis induced mice (imiquimod); assay: Skin hemorrhage spot reduction effect in the psoriasis induced mice; conditions: for number of mice showing hemorrhage spots: IMQ applied, 8 mice/group
Protocol: as §1, §2
The psoriasis induced mice orally administered with cedrol, cedryl acetate, and alpha-cedrene of Example <2-1> were observed by the naked eye, and the number of mice showing hemorrhage spots was counted. Hemorrhage spot is a symptom of psoriasis, and when IMQ is applied, the number of skin hemorrhage spots increases as time goes by.

[6] = tested on: psoriasis induced mice (imiquimod); assay: Skin wrinkle reduction effect in the psoriasis induced mice; conditions: for number of mice showing skin wrinkles: IMQ applied, 8 mice/group
Protocol: as §1, §2
The psoriasis induced mice orally administered with cedrol, cedryl acetate, and alpha-cedrene of Example <2-1> were observed by the naked eye, and the number of mice showing skin wrinkles was counted. Skin wrinkle is a symptom of psoriasis, and when IMQ is applied, skin keratinization increases and accordingly skin wrinkles are formed as time goes by.

[7] = tested on: psoriasis induced mice (imiquimod); assay: Cumulative score of PASI for ear thickness, keratosis and skin flair (development phase); conditions: 100 mg/kg oral, 7 days, IMQ applied
Protocol: as §1
as §2, with “And the control group was orally administered with distilled water (200 μl/mouse).” left out

[8] = day 7, 100 mg/kg oral, IMQ alone 5
[9] = day 7, 100 mg/kg oral, IMQ alone 3

Structure (SMILES) | keratosis mean point (PASI) [1] [point] | weight change for 7 days [2] [g] | skin flair recovery effect, comparison in words ([3]; 100 mg/kg oral after termination of imiquimod) | PASI reflecting skin flair [3] [point] | skin flair disappearance (in words) [3] | cumulative PASI (ear thickness, keratosis, skin flair) recovery effect, in words [4] | number of mice showing hemorrhage spots ([5]; day 4, 100 mg/kg oral) | number of mice showing hemorrhage spots [5, 8] | number of mice showing skin wrinkles ([6]; day 5, 100 mg/kg oral) | number of mice showing skin wrinkles [6, 9] | cumulative PASI (ear thickness, keratosis, skin flair) reduction effect, in words [7] | skin hemorrhage spot reduction effect, comparison in words ([5]; 100 mg/kg oral, 7 days) | number of mice showing hemorrhage spots ([5]; day 5, 100 mg/kg oral) | keratosis reduction effect, comparison in words ([1]; 100 mg/kg oral, 7 days) | skin wrinkle reduction effect, comparison in words ([6]; 100 mg/kg oral, 7 days) | number of mice showing skin wrinkles ([6]; day 6, 100 mg/kg oral)
C[C@@H]1CC[C@H]2C(C)(C)[C@H]3C[C@@]12CC[C@@]3(C)O [cedrol, Cedrol] | 3.00 | 0.025 | strongest recovery effect | 3.0±0.6 | skin flair of all mice disappeared | strongest recovery effect | one | 3 mice | one | 2 mice |  |  |  |  |  | 
CC(=O)O[C@]1(C)CC[C@@]23C[C@@H]1C(C)(C)[C@@H]2CC[C@H]3C [cedryl acetate, Cedryl acetate] | 3.08 |  |  | 4.0±0.0 |  |  |  | one | one | one | strongest reduction effect at a similar level | strongest reduction effect | one |  |  | 
CC1=CC[C@@]23C[C@@H]1C(C)(C)[C@@H]2CC[C@H]3C [alpha-cedrene, Alpha-cedrene] | 2.66 |  |  | 4.0±1.0 | skin flair of all mice disappeared |  |  | one |  | one | strongest reduction effect at a similar level |  | two | strongest reduction effect | strongest reduction effect | one
